According to patent US20240122917A1, “USE OF COMPOSITION CONTAINING CILOSTAZOL IN CEREBROVASCULAR DISEASES” (NEURODAWN PHARMACEUTICAL CO., LTD., priority 2021, published 2024):

Assays:
[1] = test system: rats with focal cerebral ischemia-reperfusion injury (MCAO rats); assay: Rat focal cerebral ischemia-reperfusion model (internal carotid artery suture method), area of cerebral infarction by TTC staining; assay type: in vivo, Sprague-Dawley (SD) rats; settings: for Area of cerebral infarction (%): 24 hours after cerebral ischemia, mean ± SD; for area of cerebral infarction in MCAO rats (in words) / neurological deficits in MCAO rats: cilostazol at 1-15 mg/kg or edaravone at 1.67-8.33 mg/kg in the tail vein
Description: The experimental animals were divided into 4 groups, cilostazol group (1 mg/kg), edaravone group (5 mg/kg), cilostazol and edaravone composition group (6 mg/kg, cilostazol:edaravone=1:5, cilostazol 1 mg/kg+edaravone 5 mg/kg) and model group. After the cerebral ischemia model was established, the animals were assigned to each group in a single-blind manner with equal probability. After reperfusion, the animals were immediately administered intravenously with the drugs once. The animals in the model group were administered with an equal volume of normal saline. The animals were sacrificed 24 hours after cerebral ischemia, and their brains were taken out, stained, and photographed for determining the area of cerebral infarction.
The rat focal cerebral ischemia-reperfusion model was established by internal carotid artery suture method. The limbs (hind limbs above the knee joint and forelimbs below the wrist joint) and head of an anesthetized rat were tightened with rubber bands. The animal was fixed on an operating table in supine position, and was shaved with an animal shaver from the head to the chest, and the skin was disinfected with alcohol. The neck of the rat was cut at the midline, and the subcutaneous tissue was bluntly separated. The thin layer of fascia on the surface of the anterior triangle of the neck was separated, the lower side-lower edge of the clavicular hyoid muscle was pulled up, and the longitudinally pulsating artery parallel to this muscle can be seen. The arterial shell was opened, and the bifurcation of the right carotid artery was exposed. The right common carotid artery, external carotid artery and internal carotid artery were separated. The vagus nerve was gently stripped, and the external carotid artery was ligated and cut. The proximal end of the common carotid artery was clamped. An incision was made at the distal end from the ligature of the external carotid artery, and was inserted with a suture line, which was passed through the bifurcation of the common carotid artery into the internal carotid artery, and then was inserted slowly until reaching slight resistance (approximately 20 mm from the bifurcation), so as to block all blood supply to the middle cerebral artery. The suture line was slightly fixed below the incision of the external carotid artery with silk thread. The silk thread clamping the proximal end of the common carotid artery was loosened. A gauze soaked in sterile saline was covered on the wound, and the rat was placed on a heat preservation pad to keep warm. 2.0 h after cerebral ischemia on the right side, the suture line was pulled out gently to restore the blood supply for reperfusion. The external carotid artery was ligated with silk thread fixing the suture line. The skin was stitched, and disinfected. The rats were placed in clean feed, and their general condition and respiration were observed until they woke up from anesthesia. The rats were provided with food and water, and commonly reared.
The animals were subjected to evaluation of neurological deficit symptoms and then sacrificed with CO2. The brain was taken out by cutting off head. The olfactory bulb, cerebellum and lower brainstem were removed. The blood on the surface of the brain was washed with normal saline, and the residual water on the surface was removed. The brain was placed at −20° C. for 20 min, then taken out, immediately cut to a coronal section vertically downward at the crossing plane of the line of sight, and sliced backward every 2 mm. The brain slices were incubated in 1% TTC staining solution (at 37° C. for 30 min). The normal brain tissue was stained into dark red, and the ischemic brain tissue was stained into pale white. After being washed with normal saline, the brain slices were quickly arranged in a row from front to back, removed off the residual water on the surface, and photographed. […]

[2] = test system: mice with focal cerebral ischemia-reperfusion injury (MCAO mice); assay: Mouse focal cerebral ischemia-reperfusion model (internal carotid artery suture method), area of cerebral infarction by TTC staining; assay type: in vivo, C57BL/6J mice; settings: cilostazol at 3.33-16.67 mg/kg or edaravone at 3.33-16.67 mg/kg in the tail vein
Description: The animals were subjected to evaluation of neurological deficit symptoms and then sacrificed with CO2. The brain was taken out by cutting off head. The olfactory bulb, cerebellum and lower brainstem were removed. The blood on the surface of the brain was washed with normal saline, and the residual water on the surface was removed. The brain was placed at −20° C. for 20 min, then taken out, immediately cut to a coronal section vertically downward at the crossing plane of the line of sight, and sliced backward every 2 mm. The brain slices were incubated in 1% TTC staining solution (at 37° C. for 30 min). The normal brain tissue was stained into dark red, and the ischemic brain tissue was stained into pale white. After being washed with normal saline, the brain slices were quickly arranged in a row from front to back, removed off the residual water on the surface, and photographed.
Calculation of area of cerebral infarction: The photos were processed by Image J software, and the corresponding area of left brain and non-infarction area of right brain were calculated according to the formula, so that the percentage of the area of infarction was calculated.
The experimental animals were divided into 4 groups, a model group and three groups of compositions of cilostazol/edaravone (respectively a group of cilostazol 3.33 mg/kg+edaravone 16.67 mg/kg in 1:5; a group of cilostazol 5.71 mg/kg+edaravone 14.29 mg/kg in 1:2.5; a group of cilostazol 10 mg/kg+edaravone 10 mg/kg in 1:1, and each composition was administered at a total amount of 20 mg/kg). After the cerebral ischemia model was established, the animals were assigned to each group in a single-blind manner with equal probability. After reperfusion, the animals were immediately administered intravenously with the drugs once. The animals in the model group were administered with an equal volume of normal saline. The animals were sacrificed 24 hours after cerebral ischemia, and their brains were taken out, stained, and photographed for determining the area of cerebral infarction.
Establishment of focal cerebral ischemia-reperfusion model: The mouse focal cerebral ischemia-reperfusion model was established by internal carotid artery suture method. An anesthetized mouse was fixed on an operating table in a supine position. The neck of the mice was cut at the midline, and the subcutaneous tissue was bluntly separated. The right common carotid artery, external carotid artery, and internal carotid artery were separated. […]

[3] = test system: rats with focal cerebral ischemia-reperfusion injury (MCAO rats); assay: Rat focal cerebral ischemia-reperfusion model (internal carotid artery suture method), area of cerebral infarction by TTC staining; assay type: in vivo, Sprague-Dawley (SD) rats; settings: 24 hours after cerebral ischemia, mean ± SD
plasma protein = settings: background statement; cited from earlier work

In the case of `O=C1CCc2cc(OCCCCc3nnnn3C3CCCCC3)ccc2N1` [Cilostazol], the “Area of cerebral infarction (%)” value ([1]; Example 1, cilostazol 1 mg/kg i.v. once immediately after reperfusion, 2.0 h ischemia, model group 40.35 ± 8.24) is reported as 34.24 ± 7.25%, the “area of cerebral infarction in MCAO rats (in words)” value [1] is reported as “reduce the area of cerebral infarction” and the “neurological deficits in MCAO rats” value [1] is reported as “significantly ameliorate the neurological deficits”. For the same molecule, the “area of cerebral infarction in MCAO mice (in words)” value [2] was “reduce the area of cerebral infarction”, the “neurological deficits in MCAO mice” value [2] was “significantly ameliorate the neurological deficits” and the “Area of cerebral infarction (%)” value ([3]; Example 2, cilostazol 5 mg/kg i.v. once immediately after reperfusion, model group 40.50 ± 8.51) was 32.59 ± 7.15 %. The “Area of cerebral infarction (%)” value ([3]; Example 3, cilostazol 15 mg/kg i.v. once immediately after reperfusion, model group 39.41 ± 9.56) was 27.26 ± 9.74 % and the “binding rate to plasma protein” value (plasma protein) was “about 95%”.
With `CC1=NN(c2ccccc2)C(=O)C1` [Edaravone, 3-methyl-1-phenyl-2-pyrazolin-5-one] the “Area of cerebral infarction (%)” value ([1]; Example 1, edaravone 5 mg/kg i.v. once immediately after reperfusion, model group 40.35 ± 8.24) was 29.35 ± 10.45 %, the “Area of cerebral infarction (%)” value ([1]; Example 2, edaravone 5 mg/kg i.v. once immediately after reperfusion, model group 40.50 ± 8.51) was 29.49 ± 9.06 % and the “area of cerebral infarction in MCAO rats (in words)” value [1] was “reduce the area of cerebral infarction”. The “neurological deficits in MCAO rats” value [1] was “significantly ameliorate the neurological deficits”, the “area of cerebral infarction in MCAO mice (in words)” value [2] was “reduce the area of cerebral infarction” and the “neurological deficits in MCAO mice” value [2] was “significantly ameliorate the neurological deficits”. The “Area of cerebral infarction (%)” value ([3]; Example 3, edaravone 3 mg/kg i.v. once immediately after reperfusion, model group 39.41 ± 9.56) was 31.24 ± 6.83 %.
